The source of these data is patent publication US9782401B1, “Method of isolating phenanthroindolizidine alkaloids from Tylophora atrofolliculata with HIF-1 inhibitory activity, compositions comprising them and their use” (priority 2016, dated 2017).

Data set [1] can be described thus: Cytotoxicity by MTT assay against T47D cells. The settings on record: human. An excerpt:
(§1) All experiments were independently performed at least three times.
In general terms: Tetrazolium assays rely on reduction of a dye to a coloured formazan, in cell work by metabolically active cells.

The target in data set [2] is T1, HIF-1 (Homo sapiens, UniProt Q16665). Description: HIF-1-mediated reporter gene assay in T47D cells (HRE-luciferase, hypoxia-induced HIF-1 activation). The data set is classed as cell-based. Set-up: endogenous in cells; host or cells: T47D cells (American Type Culture Collection). Here is the method:
The HIF-1-mediated reporter gene assay in T47D cells was performed according to a previous protocol with minor modification (Parhira, S. et al., Sci. Rep., 2014, 4, 4748). T47D cells (American Type Culture Collection) were cultured in DMEM medium (Invitrogen), supplemented with 10% (v/v) fetal serum (FBS) (Invitrogen), 100 U/mL penicillin, and 100 μg/mL streptomycin (Invitrogen) in a humidified atmosphere (5% CO2 and 95% air) at 37° C. Cells (5×10^6) were co-transfected with the HRE-luciferase (Addgene) and Renilla plasmids using Lipofectamine 2000 (Invitrogen) according to the manufacturer's protocol. The transfected cells were seeded in 96-well plates with a density of 5×10^4/well and cultured in DMEM with 10% FBS overnight. After addition of the test compounds with different concentrations, the cells were incubated for 1 h, and then exposed to hypoxic (2% O2/5% CO2/93% N2) or normoxic (5% CO2/95% air) conditions at 37° C. for 20 h. Then the cells were lysed, and luciferase assay was performed using a Dual-Luciferase® reporter assay (Promega) kit according to the instructions of the manufacturer. Luciferase activities of both HRE and Renilla were determined by a multimode reader (Infinite 200 PRO, Teacan). HIF-1 transcriptional activity was shown by the ratio of firefly/Renilla luciferase activity. IC50 values were determined from the dose-response curves using Prism software. The data were repeated by three independent experiments.
A general note: In a reporter assay the amount or activity of a reporter protein is the signal.

The target in data set [3] is T1, HIF-1. To be noted: literature value (Hodges et al. 2004; Cai et al. 2006); read-out: HIF-1 inhibition IC50 (literature); cited from earlier work.
For the next data set, the system named is T47D cells. Put plainly: Cytotoxicity by MTT assay against T47D cells. The settings on record: read-out: Cytotoxicity against T47D cells IC50 (nM) Hypoxic; T47D cells, hypoxic conditions, MTT assay.
Excerpt: as §1

Setting [4] is: T47D cells, Cytotoxicity against T47D cells IC50 (nM) Hypoxic, hypoxic conditions, MTT assay.
Setting [5] is: T47D cells, Cytotoxicity against T47D cells IC50 (nM) Normoxic, normoxic conditions, MTT assay.
The mark [6] stands for this setting: T47D human breast tumor cells, HIF-1 activation induced by hypoxia (2% O2, 20 h), means±SD, read-out: HIF-1 activation inhibitory activity IC50 (nM) T47D.
[7] abbreviates: Cytotoxicity against T47D cells IC50 (nM) Hypoxic, T47D cells, hypoxic conditions, MTT assay.
The mark [8] stands for this setting: Cytotoxicity against T47D cells IC50 (nM) Normoxic, T47D cells, normoxic conditions, MTT assay.

Like-named read-outs stand apart in the source and are kept apart here.

T1 sequence (Q16665 whole entry): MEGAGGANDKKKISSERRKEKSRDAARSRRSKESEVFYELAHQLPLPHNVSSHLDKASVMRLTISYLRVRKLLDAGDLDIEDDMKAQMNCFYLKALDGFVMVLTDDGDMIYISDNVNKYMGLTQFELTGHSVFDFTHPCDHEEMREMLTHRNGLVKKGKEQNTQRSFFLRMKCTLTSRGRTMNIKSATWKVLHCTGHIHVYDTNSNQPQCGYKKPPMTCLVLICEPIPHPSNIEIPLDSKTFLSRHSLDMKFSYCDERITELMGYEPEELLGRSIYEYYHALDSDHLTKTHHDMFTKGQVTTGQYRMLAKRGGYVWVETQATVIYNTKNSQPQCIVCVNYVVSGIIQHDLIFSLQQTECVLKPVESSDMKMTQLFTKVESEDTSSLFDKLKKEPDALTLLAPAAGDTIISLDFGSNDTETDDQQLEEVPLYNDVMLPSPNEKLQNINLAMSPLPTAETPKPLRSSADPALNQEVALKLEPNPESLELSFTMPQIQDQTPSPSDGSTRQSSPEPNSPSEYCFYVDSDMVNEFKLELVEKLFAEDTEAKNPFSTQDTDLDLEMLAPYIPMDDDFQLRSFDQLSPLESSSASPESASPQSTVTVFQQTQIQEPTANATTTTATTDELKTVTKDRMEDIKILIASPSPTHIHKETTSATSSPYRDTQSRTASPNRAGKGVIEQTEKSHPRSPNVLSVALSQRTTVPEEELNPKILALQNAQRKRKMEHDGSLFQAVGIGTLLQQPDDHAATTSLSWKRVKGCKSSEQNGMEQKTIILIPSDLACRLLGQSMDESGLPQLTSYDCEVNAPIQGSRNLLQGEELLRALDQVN

On to `COc1ccc2c3c(c4cc(OC)c(OC)cc4c2c1)CN1O[C@@H](CC(C)=O)CC[C@H]1[C@H]3O` (single isomer, unassigned) [compound 3, 12S, 14aS, 15S-11-oxa-12-(2-oxopropyl)-hydroxyboehmeriasin A], for which the IC50 in data set [1] (setting [4]) is greater than 20000 nM; in data set [1] (setting [5]) it was greater than 10000 nM; at HIF-1 [2] (setting [6]), 2660 ± 1810 nM.

Regarding `COc1ccc([C@@H](O)[C@@H](C)Oc2ccc([C@H]3O[C@H](c4ccc(O[C@H](C)[C@H](O)c5ccc6c(c5)OCO6)c(OC)c4)[C@H](C)[C@H]3C)cc2OC)cc1OC` [Manassantin B], the IC50 at HIF-1 [3] is 3 nM.

For the molecule `COc1ccc2c3c(c4cc(OC)c(O)cc4c2c1)CN1C(=O)CC[C@H]1[C@H]3O` [compound 1, 11-keto-tylophorinidine], the IC50 at HIF-1 [2] is greater than 10000 nM.

Regarding `COc1cc2c3c(c4cc(O)c(OC)cc4c2cc1O)CC1CCCN1C3` (stereo not shown) [compound 4, 2-hydroxyl deoxytylophorinidine], the IC50 was greater than 500 nM in data set [1] (setting [7]), greater than 500 nM in data set [1] (setting [8]) and 19 ± 2 nM on HIF-1 [2].

As to `COc1cc2c3c(c4cc(O)c(OC)cc4c2cc1O)C(O)C1CCCN1C3` (stereo not shown) [compound 5, 2-hydroxyl tylophorinidine], the IC50 in data set [1] (setting [4]) was greater than 250 nM; in data set [1] (setting [5]), greater than 250 nM; against HIF-1 [2], 10 nM.

Turning to `COc1cc2c3c(c4ccc(O)cc4c2cc1O)[C@@H](O)[C@@H]1CCC[N@@+]1([O-])C3` [compound 6, 10R, 14R-3-O-demethyl tylophorinidine N-oxide], the results for the half-maximal inhibitory concentration (IC50) (in data set [1] (setting [4]); in data set [1] (setting [5]); on HIF-1 [2] (setting [6])) were greater than 200 nM, greater than 200 nM and 50 ± 35 nM, respectively.

Turning to `COc1cc2c3c(c4cc(O)c(OC)cc4c2cc1O)[C@@H](O)[C@H]1CCC[N@+]1([O-])C3` [compound 7, 10S, 13aR, 14R-2-hydroxyl tylophorinidine N-oxide], the figures for the IC50 (in data set [1] (setting [4]); in data set [1] (setting [5]); on HIF-1 [2] (setting [6])) were greater than 1000 nM, greater than 1000 nM and 37 ± 8 nM, respectively.

Turning to `COc1cc2c(cc1O)c1c(c3cc(OC)c(OC)cc32)C[N@+]2([O-])CCC[C@H]2[C@@H]1O` [compound 8, 10R-2-hydroxyl tylophorinine N-oxide], the IC50 in data set [1] (setting [4]) is greater than 1000 nM; in data set [1] (setting [5]), greater than 1000 nM; against HIF-1 [2], 170 ± 106 nM.

Regarding `COc1cc2c(cc1O)c1c(c3cc(OC)c(OC)cc32)CN2CCC[C@@H]2[C@@H]1O` [compound 9, 13aR-2-hydroxyl tylophorinine], the IC50 in data set [1] (setting [7]) was greater than 2000 nM; in data set [1] (setting [8]) it was greater than 2000 nM; on HIF-1 [2], 489 ± 108 nM.

In the case of `COc1cc2c3c(c4cc(OC)c(OC)cc4c2cc1OC)[C@H](O)[C@@H]1CCC[N@@+]1([O-])C3` [compound 10, 10R, 13aS, 14S-14-hydroxytylophorine N-oxide], the IC50 is greater than 2000 nM in data set [1] (setting [4]), greater than 2000 nM in data set [1] (setting [5]) and 441 nM at HIF-1 [2] (setting [6]).

Consider `COc1cc2c3c(c4cc(OC)c(OC)cc4c2cc1OC)C[N@+]1([O-])CCC[C@H]1C3` [compound 11, 10R, 13aS-tylophorine N-oxide], for which the figures for the IC50 (in data set [1] (setting [4]); in data set [1] (setting [5]); on HIF-1 [2] (setting [6])) were greater than 2000 nM, greater than 2000 nM and 930 nM, respectively.

For the molecule `COc1ccc2c3c(c4cc(OC)c(OC)cc4c2c1)C[N@+]1([O-])CCC[C@H]1C3` [compound 12, 10R-deoxytylophorinine N-oxide], the IC50 in data set [1] (setting [7]) is greater than 2000 nM; in data set [1] (setting [8]) it was greater than 1000 nM; on HIF-1 [2] it was 254 nM.

For `COc1cc2c3c(c4ccc(O)cc4c2cc1O)[C@H](O)[C@@H]1CCCN1C3` [compound 13, 3-O-demethyl tylophorinidine], the IC50 in data set [1] (setting [4]) was greater than 250 nM; in data set [1] (setting [5]) it was greater than 250 nM; at HIF-1 [2], 10 nM.

Take `COc1ccc2c3c(c4cc(OC)c(O)cc4c2c1)CN1CCC[C@H]1[C@H]3O` [compound 14, tylophorinidine]: the IC50 was greater than 100 nM in data set [1] (setting [4]), greater than 10 nM in data set [1] (setting [5]) and 4 nM on HIF-1 [2].

For the molecule `COc1cc2c3c(c4ccc(O)cc4c2cc1OC)[C@H](O)[C@@H]1CCCN1C3` [compound 15, trans-(+)-3,14a-dihydroxy-6,7-dimethoxyphenanthroindolizidine], the IC50 in data set [1] (setting [4]) was greater than 250 nM; in data set [1] (setting [5]) it was greater than 250 nM; on HIF-1 [2] (setting [6]), 6 ± 3 nM.

Consider `COc1ccc2c3c(c4cc(OC)c(O)cc4c2c1)C[N+]1([O-])CCC[C@H]1[C@H]3O` (stereo partly shown) [compound 16, tylophoridicine C], for which the IC50 in data set [1] is greater than 100 nM; with T47D cells, greater than 100 nM; on HIF-1 [2] it was 25 nM.

On to `COc1ccc2c3c(c4cc(OC)c(OC)cc4c2c1)C[N+]1([O-])CCC[C@@H]1[C@@H]3O` (stereo partly shown) [compound 17, tylophorinine N-oxide], for which the IC50 was greater than 100 nM in data set [1], greater than 100 nM with T47D cells and 3 nM against HIF-1 [2].

Take `COc1ccc2c3c(c4cc(OC)c(OC)cc4c2c1)CN1CCC[C@H]1[C@@H]3O` [compound 18, tylophorinine]: the values for the IC50 (in data set [1] (setting [7]); in data set [1] (setting [8]); at HIF-1 [2]) were greater than 500 nM, greater than 500 nM and 19 nM, respectively.

Regarding `COc1cc2c3c(c4cc(OC)c(OC)cc4c2cc1OC)CN1CCC[C@H]1C3` [compound 19, 13aS-tylophorine], the figures for the IC50 (in data set [1] (setting [7]); in data set [1] (setting [8]); at HIF-1 [2]) were greater than 2000 nM, greater than 1000 nM and 438 nM, respectively.

On to `COc1ccc2c3c(c4cc(OC)c(OC)cc4c2c1)CN1CCC[C@H]1C3` [compound 20, deoxytylophorinine], for which the IC50 in data set [1] (setting [7]) is greater than 15000 nM; in data set [1] (setting [8]), greater than 600 nM; against HIF-1 [2] it was 115 nM. The “times more potent than its dehydrogenated product (22)” value on HIF-1 [2] (compound (20) versus (22), HIF-1 IC50) is given as “at least 8 times”.

`COc1ccc2c3c(c4cc(OC)c(OC)cc4c2c1)CN1CCC[C@H]1[C@H]3O` [compound 21, O-methyl-tylophorindine]: the IC50 in data set [1] (setting [7]) is greater than 12500 nM; in data set [1] (setting [8]) it was greater than 500 nM; at HIF-1 [2] it was 13 nM.

The molecule `COc1ccc2c(c1)c1cc(OC)c(OC)cc1c1c[n+]3c(cc21)CCC3` [compound 22, tylophoridicine D] gave an IC50 against HIF-1 [2] greater than 10000 nM.

By IC50 is commonly meant the concentration at which inhibition is half-maximal.
